Results: patent publication US20180370927A1, “MICROBIOCIDAL OXADIAZOLE DERIVATIVES” (SYNGENTA PARTICIPATIONS AG, priority 2015, published 2018)

Experiments:
[1] = test system: Puccinia recondita f. Sp. Tritici; assay: Puccinia recondita f. sp. tritici / wheat / leaf disc preventative (brown rust); type: in vivo; details: foliar, 200 ppm in the applied formulation, wheat leaf segments, preventative, assessed 7 to 9 days after application, read-out: disease control compared to untreated control leaf disks
Procedure, shortened: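 Wheat cv. Kanzler leaf segments on agar sprayed with formulated compound in water, inoculated with rust spores 1 day later. Incubated at 19° C, 75% rh, 12 h light/12 h dark; percent disease control versus untreated scored 7 to 9 days after application; tested at 200 ppm.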

[2] = test system: Puccinia recondita f. Sp. Tritici; assay: Puccinia recondita f. sp. tritici / wheat / leaf disc curative (brown rust); type: in vivo; details: foliar, 200 ppm in the applied formulation, wheat leaf segments, curative (applied 1 day after inoculation), assessed 6 to 8 days after application, read-out: disease control compared to untreated control leaf disks
Procedure, shortened: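 Curative treatment: formulated compound in water was applied 1 day post-inoculation to spore-inoculated wheat cv. Kanzler segments held on agar. Segments stayed at 19° C and 75% relative humidity (12 h photoperiod after application), and disease control relative to untreated checks was assessed 6 to 8 days later.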

Phakopsora pachyrhizi = Phakopsora pachyrhizi / soybean / leaf disc preventative (Asian soybean rust); type: in vivo; details: foliar, 200 ppm in the applied formulation, soybean leaf disks, assessed 12 to 14 days after application, read-out: disease control compared to untreated control leaf disks
Method: Leaf disks or leaf segments of various plant species are cut from plants grown in a greenhouse. The cut leaf disks or segments are placed in multiwell plates (24-well format) onto water agar. The leaf disks are sprayed with a test solution before (preventative) or after (curative) inoculation. Compounds to be tested are prepared as DMSO solutions (max. 10 mg/mL) which are diluted to the appropriate concentration with 0.025% Tween20 just before spraying. The inoculated leaf disks or segments are incubated under defined conditions (temperature, relative humidity, light, etc.) according to the respective test system. A single evaluation of disease level is carried out 3 to 14 days after inoculation, depending on the pathosystem. Percent disease control relative to the untreated check leaf disks or segments is then calculated.
Example 3: Fungicidal Activity Against Phakopsora pachyrhizi/Soybean/Leaf Disc Preventative (Asian Soybean Rust)
Soybean leaf disks are placed on water agar in multiwell plates (24-well format) and sprayed with the formulated test compound diluted in water. One day after application leaf discs are inoculated by spraying a spore suspension on the lower leaf surface. After an incubation period in a climate cabinet of 24-36 hours in darkness at 20° C. and 75% relative humidity leaf disc are kept at 20° C. with 12 hours light/day and 75% relative humidity. The activity of a compound is assessed as percent disease control compared to untreated when an appropriate level of disease damage appears in untreated check leaf disks (12 to 14 days after application).
The following compounds at 200 ppm in the applied formulation give at least 80% disease control in this test when compared to untreated control leaf disks under the same conditions, which show extensive disease development.

[3] = test system: Glomerella lacenarium (Colletotrichum lacenarium); assay: Glomerella lacenarium (Colletotrichum lacenarium) liquid culture / cucumber / preventative (anthracnose); type: cell-based; details: 20 ppm in the applied formulation, liquid culture in PDB, 24° C., 3 to 4 days after application, read-out: disease control (inhibition of growth, photometric) compared to untreated control
Procedure, shortened: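 At 20 ppm in the applied formulation, compounds were mixed with fungal spores in potato dextrose broth and held at 24° C. After 3–4 days, photometric growth measurement gave percent antifungal activity relative to untreated control.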

CCCC(=O)C(=O)N(Cc1ccc(-c2noc(C(F)(F)F)n2)cc1)OC [Compound 1.3, N-methoxy-2-oxo-N-[[4-[5-(trifluoromethyl)-1,2,4-oxadiazol-3-yl]phenyl]methyl]pentanamide]
≥ 80%: pest or weed control at 200 ppm [1] | pest or weed control at 200 ppm [2] | pest or weed control at 200 ppm (Phakopsora pachyrhizi) | inhibition at 20 ppm [3]

CCCC(=O)C(=O)N(Cc1ccc(-c2noc(C(F)(F)F)n2)cc1)C1CC1 [Compound 1.4, N-cyclopropyl-2-oxo-N-[[4-[5-(trifluoromethyl)-1,2,4-oxadiazol-3-yl]phenyl]methyl]pentanamide]
≥ 80%: pest or weed control at 200 ppm [1] | pest or weed control at 200 ppm [2] | pest or weed control at 200 ppm (Phakopsora pachyrhizi) | inhibition at 20 ppm [3]

C#CCN(Cc1ccc(-c2noc(C(F)(F)F)n2)cc1)C(=O)C(=O)CCC [Compound 1.5, 2-oxo-N-prop-2-ynyl-N-[[4-[5-(trifluoromethyl)-1,2,4-oxadiazol-3-yl]phenyl]methyl]pentanamide]
≥ 80%: pest or weed control at 200 ppm [1] | pest or weed control at 200 ppm [2] | pest or weed control at 200 ppm (Phakopsora pachyrhizi) | inhibition at 20 ppm [3]

COCCN(Cc1ccc(-c2noc(C(F)(F)F)n2)cc1)C(=O)C(C)=O [Compound 1.10, N-(2-methoxyethyl)-2-oxo-N-[[4-[5-(trifluoromethyl)-1,2,4-oxadiazol-3-yl]phenyl]methyl]propanamide]
≥ 80%: pest or weed control at 200 ppm [1] | pest or weed control at 200 ppm [2] | pest or weed control at 200 ppm (Phakopsora pachyrhizi) | inhibition at 20 ppm [3]

CCC(C)N(Cc1ccc(-c2noc(C(F)(F)F)n2)cc1)C(=O)C(C)=O (stereo not drawn) [Compound 1.12, 2-oxo-N-sec-butyl-N-[[4-[5-(trifluoromethyl)-1,2,4-oxadiazol-3-yl]phenyl]methyl]propanamide]
≥ 80%: pest or weed control at 200 ppm [1] | pest or weed control at 200 ppm [2] | pest or weed control at 200 ppm (Phakopsora pachyrhizi) | inhibition at 20 ppm [3]

C=CCN(Cc1ccc(-c2noc(C(F)(F)F)n2)cc1)C(=O)C(C)=O [Compound 1.16, N-allyl-2-oxo-N-[[4-[5-(trifluoromethyl)-1,2,4-oxadiazol-3-yl]phenyl]methyl]propanamide]
≥ 80%: pest or weed control at 200 ppm [2] | pest or weed control at 200 ppm (Phakopsora pachyrhizi) | inhibition at 20 ppm [3]

C=CCN(Cc1ccc(-c2noc(C(F)(F)F)n2)cc1)C(=O)C(=O)CCC [Compound 1.17, N-allyl-2-oxo-N-[[4-[5-(trifluoromethyl)-1,2,4-oxadiazol-3-yl]phenyl]methyl]pentanamide]
≥ 80%: pest or weed control at 200 ppm [1] | pest or weed control at 200 ppm [2] | pest or weed control at 200 ppm (Phakopsora pachyrhizi) | inhibition at 20 ppm [3]

CCN(Cc1ccc(-c2noc(C(F)(F)F)n2)cc1)C(=O)C(C)=O [Compound 1.18, N-ethyl-2-oxo-N-[[4-[5-(trifluoromethyl)-1,2,4-oxadiazol-3-yl]phenyl]methyl]propanamide]
≥ 80%: pest or weed control at 200 ppm [1] | pest or weed control at 200 ppm [2] | pest or weed control at 200 ppm (Phakopsora pachyrhizi) | inhibition at 20 ppm [3]

CCCC(=O)C(=O)N(CC)Cc1ccc(-c2noc(C(F)(F)F)n2)cc1 [Compound 1.19, N-ethyl-2-oxo-N-[[4-[5-(trifluoromethyl)-1,2,4-oxadiazol-3-yl]phenyl]methyl]pentanamide]
≥ 80%: pest or weed control at 200 ppm [1] | pest or weed control at 200 ppm [2] | pest or weed control at 200 ppm (Phakopsora pachyrhizi) | inhibition at 20 ppm [3]

CC(=O)C(=O)N(C)Cc1ccc(-c2noc(C(F)(F)F)n2)cc1 [Compound 1.20, N-methyl-2-oxo-N-[[4-[5-(trifluoromethyl)-1,2,4-oxadiazol-3-yl]phenyl]methyl]propanamide]
≥ 80%: pest or weed control at 200 ppm [1] | pest or weed control at 200 ppm [2] | pest or weed control at 200 ppm (Phakopsora pachyrhizi) | inhibition at 20 ppm [3]

CCCC(=O)C(=O)N(C)Cc1ccc(-c2noc(C(F)(F)F)n2)cc1 [Compound 1.21, N-methyl-2-oxo-N-[[4-[5-(trifluoromethyl)-1,2,4-oxadiazol-3-yl]phenyl]methyl]pentanamide]
≥ 80%: pest or weed control at 200 ppm [1] | pest or weed control at 200 ppm [2] | pest or weed control at 200 ppm (Phakopsora pachyrhizi) | inhibition at 20 ppm [3]

CCON(Cc1ccc(-c2noc(C(F)(F)F)n2)cc1)C(=O)C(=O)CC [Compound 1.29, N-ethoxy-2-oxo-N-[[4-[5-(trifluoromethyl)-1,2,4-oxadiazol-3-yl]phenyl]methyl]butanamide]
≥ 80%: pest or weed control at 200 ppm [1] | pest or weed control at 200 ppm [2] | pest or weed control at 200 ppm (Phakopsora pachyrhizi) | inhibition at 20 ppm [3]

CCCN(Cc1ccc(-c2noc(C(F)(F)F)n2)cc1)C(=O)C(=O)CC [Compound 1.31, 2-oxo-N-propyl-N-[[4-[5-(trifluoromethyl)-1,2,4-oxadiazol-3-yl]phenyl]methyl]butanamide]
≥ 80%: pest or weed control at 200 ppm [1] | pest or weed control at 200 ppm [2] | pest or weed control at 200 ppm (Phakopsora pachyrhizi) | inhibition at 20 ppm [3]

CCC(=O)C(=O)N(Cc1ccc(-c2noc(C(F)(F)F)n2)cc1)C(C)C [Compound 1.32]
≥ 80%: pest or weed control at 200 ppm [1] | pest or weed control at 200 ppm [2] | pest or weed control at 200 ppm (Phakopsora pachyrhizi) | inhibition at 20 ppm [3]

CCC(=O)C(=O)N(CCO)Cc1ccc(-c2noc(C(F)(F)F)n2)cc1 [Compound 1.33, N-(2-hydroxyethyl)-2-oxo-N-[[4-[5-(trifluoromethyl)-1,2,4-oxadiazol-3-yl]phenyl]methyl]butanamide]
≥ 80%: pest or weed control at 200 ppm [1] | pest or weed control at 200 ppm [2] | pest or weed control at 200 ppm (Phakopsora pachyrhizi) | inhibition at 20 ppm [3]

CON(Cc1ccc(-c2noc(C(F)(F)F)n2)cc1)C(=O)C(C)=O [Compound 1.36, N-methoxy-2-oxo-N-[[4-[5-(trifluoromethyl)-1,2,4-oxadiazol-3-yl]phenyl]methyl]propanamide]
≥ 80%: pest or weed control at 200 ppm [1] | pest or weed control at 200 ppm [2] | pest or weed control at 200 ppm (Phakopsora pachyrhizi) | inhibition at 20 ppm [3]

O=C(NCc1ccc(-c2noc(C(F)(F)F)n2)cc1Cl)C(=O)c1cccs1 [Compound 1.62, N-[[2-chloro-4-[5-(trifluoromethyl)-1,2,4-oxadiazol-3-yl]phenyl]methyl]-2-oxo-2-(2-thienyl)acetamide]
≥ 80%: pest or weed control at 200 ppm [1] | pest or weed control at 200 ppm (Phakopsora pachyrhizi) | inhibition at 20 ppm [3]

CC(C)(C)C(=O)C(=O)NCc1ccc(-c2noc(C(F)(F)F)n2)cc1Cl [Compound 1.63, N-[[2-chloro-4-[5-(trifluoromethyl)-1,2,4-oxadiazol-3-yl]phenyl]methyl]-3,3-dimethyl-2-oxo-butanamide]
≥ 80%: pest or weed control at 200 ppm [1] | pest or weed control at 200 ppm (Phakopsora pachyrhizi) | inhibition at 20 ppm [3]

O=C(NCc1c(F)cc(-c2noc(C(F)(F)F)n2)cc1F)C(=O)c1ccccc1 [Compound 1.68, N-[[2,6-difluoro-4-[5-(trifluoromethyl)-1,2,4-oxadiazol-3-yl]phenyl]methyl]-2-oxo-2-phenyl-acetamide]
≥ 80%: pest or weed control at 200 ppm [1] | pest or weed control at 200 ppm (Phakopsora pachyrhizi) | inhibition at 20 ppm [3]

CON(Cc1ccc(-c2noc(C(F)(F)F)n2)cc1)C(=O)C(=O)c1cccs1 [Compound 1.73, N-methoxy-2-oxo-2-(2-thienyl)-N-[[4-[5-(trifluoromethyl)-1,2,4-oxadiazol-3-yl]phenyl]methyl]acetamide]
≥ 80%: pest or weed control at 200 ppm [1] | pest or weed control at 200 ppm (Phakopsora pachyrhizi) | inhibition at 20 ppm [3]

O=C(NCc1ccc(-c2noc(C(F)(F)F)n2)cc1Cl)C(=O)c1ccco1 [Compound 1.84, N-[[2-chloro-4-[5-(trifluoromethyl)-1,2,4-oxadiazol-3-yl]phenyl]methyl]-2-(2-furyl)-2-oxo-acetamide]
≥ 80%: pest or weed control at 200 ppm [1] | pest or weed control at 200 ppm (Phakopsora pachyrhizi) | inhibition at 20 ppm [3]

CCCCON(Cc1ccc(-c2noc(C(F)(F)F)n2)cc1)C(=O)C(N)=O [Compound 4.87, N′-butoxy-N′-[[4-[5-(trifluoromethyl)-1,2,4-oxadiazol-3-yl]phenyl]methyl] oxamide]
≥ 80%: pest or weed control at 200 ppm [1] | pest or weed control at 200 ppm (Phakopsora pachyrhizi) | inhibition at 20 ppm [3]
